Test results from paper PMC5329948, “Caspase vinyl sulfone small molecule inhibitors prevent axonal degeneration in human neurons and reverse cognitive impairment in Caspase-6-overexpressing mice” (Molecular Neurodegeneration, 2017).

How the values were obtained:
recombinant Caspase-4 = molecular target: T1, recombinant Caspase-4 (Homo sapiens, UniProt P49662); assay: Caspase Inhibitor Drug Screening Kit (BioVision), LEVD-AFC substrate; format: biochemical; conditions: not active site titrated
T1 construct: purchased BioVision
T1 sequence (P49662 81-377): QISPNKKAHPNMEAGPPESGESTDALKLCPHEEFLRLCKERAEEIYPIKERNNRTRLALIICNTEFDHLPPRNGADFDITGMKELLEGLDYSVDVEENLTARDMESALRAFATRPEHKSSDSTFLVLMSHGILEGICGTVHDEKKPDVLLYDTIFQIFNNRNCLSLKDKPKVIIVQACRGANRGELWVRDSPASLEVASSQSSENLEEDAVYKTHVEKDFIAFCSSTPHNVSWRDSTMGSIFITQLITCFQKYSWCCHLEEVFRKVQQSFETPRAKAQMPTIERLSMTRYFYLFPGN
Description: (§1) The half-maximal inhibitory concentrations (IC50) for NWL inhibitors (Patent publication # WO/2009/140765, WO/2010/133000, and WO/2012/140500) was determined by incubating 0 to 20 μM NWL-117 and NWL-154 with 20 nM of active site-titrated Casp6 in SB at room temperature for 5 minutes. Then, 10 μM Ac-VEID-AFC was added and fluorescence measured for 20 min at 37 °C as described above. New World Laboratories performed the IC50 determination for NWL inhibitors dissolved in dimethyl sulfoxide (DMSO) against recombinant Casp1-10 using the Caspase Inhibitor Drug Screening Kits (BioVision, San Francisco, CA) following the manufacturer’s instructions and the preferred substrates for the caspases (Caspase-1: WAD-AFC, Caspase-2: VDVAD-AFC, Caspase-3: DEVD-AFC, Caspase-4: LEVD-AFC, Caspase-5: WEHD-AFC, Casp6:VEID-AFC, Caspase-7: DEVD-AFC, Caspase-8: IETD-AFC, Caspase-9: LEHD-AFC, Caspase-10: AEVD-AFC). In transfected HCT116 cells, 0 to 100 μM NWL inhibitors were added in the culture media and left on the cells for 2 h. Cells were washed once with 1 mL ice-cold PBS, incubated on ice for 5 min with 200 μL cell lysis buffer (CLB) (50 mM HEPES, 0.1% CHAPS, 0.1 mM EDTA), and gently scraped off. Protein concentrations were determined by Bradford assay (BioRad, Mississauga, ON, CA) by measuring the absorbance at 595 nm using the BioTek Synergy H4 plate reader. […]

recombinant Caspase-1 = molecular target: T2, recombinant Caspase-1 (Homo sapiens, UniProt P29466); assay: Caspase Inhibitor Drug Screening Kit (BioVision), WAD-AFC substrate; format: biochemical; conditions: not active site titrated
T2 construct: purchased BioVision
T2 sequence (P29466 120-404): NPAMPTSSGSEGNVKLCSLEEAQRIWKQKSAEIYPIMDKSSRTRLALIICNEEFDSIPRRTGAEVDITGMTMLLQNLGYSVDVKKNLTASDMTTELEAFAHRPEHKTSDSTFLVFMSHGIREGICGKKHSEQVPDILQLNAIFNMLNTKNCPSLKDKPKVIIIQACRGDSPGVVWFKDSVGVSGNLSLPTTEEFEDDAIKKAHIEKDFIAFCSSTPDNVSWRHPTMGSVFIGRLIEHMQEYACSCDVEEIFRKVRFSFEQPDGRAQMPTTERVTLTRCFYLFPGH
Description: as §1

recombinant Caspase-2 = molecular target: T3, recombinant Caspase-2 (Homo sapiens, UniProt P42575); assay: Caspase Inhibitor Drug Screening Kit (BioVision), VDVAD-AFC substrate; format: biochemical; conditions: not active site titrated
T3 construct: purchased BioVision
T3 sequence (P42575 whole entry): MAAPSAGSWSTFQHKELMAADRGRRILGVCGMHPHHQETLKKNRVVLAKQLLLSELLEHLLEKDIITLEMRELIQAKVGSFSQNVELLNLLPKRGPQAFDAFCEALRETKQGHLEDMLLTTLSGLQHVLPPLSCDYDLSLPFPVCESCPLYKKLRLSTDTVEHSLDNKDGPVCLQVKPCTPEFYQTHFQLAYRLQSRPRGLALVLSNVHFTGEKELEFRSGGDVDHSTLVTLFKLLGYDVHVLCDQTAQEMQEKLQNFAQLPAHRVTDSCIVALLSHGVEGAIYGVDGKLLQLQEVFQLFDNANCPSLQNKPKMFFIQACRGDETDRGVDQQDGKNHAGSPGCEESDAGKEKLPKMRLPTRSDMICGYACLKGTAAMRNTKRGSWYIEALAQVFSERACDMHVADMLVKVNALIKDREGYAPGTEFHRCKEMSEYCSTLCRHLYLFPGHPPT
Description: as §1

[1] = tested on: APPWT-transfected primary human CNS neurons; assay: Neuritic beading/degeneration in APPWT-transfected primary human neurons; format: cell-based; conditions: for neuritic beading: APPWT/EGFP co-expression, 48 h; for neuritic beading / percentage of beaded neurons, fold of EGFP-alone: NWL 100 μM, Z-VEID-fmk 5 μM; for percentage of beaded neurons, fold of EGFP-alone: live imaging 72 h, APPWT vehicle 1.52, EGFP-alone 1.00, mean ± SEM
Description: Immunofluorescence on human neuron cultures: Primary human neurons were pre-treated 2 h and serum-deprived in the presence of 100 μM NWL-117, 100 μM NWL-154, or 5 μM Z-VEID-fmk (Biomol, Plymouth meeting, PA, USA) for 24 h. Following treatment, human neurons were washed once with warm PBS, fixed for 20 min at room temperature with 4% paraformaldehyde (Sigma, Oakville, ON, CA)/4% sucrose (BioRad, Mississauga, ON, CA) for TubΔCasp6 or 2% formaldehyde (Thermo Fisher Scientific, Waltham, MA, USA)/0.2% glutaraldehyde (Sigma, Oakville, ON, CA) for pBudEGFP or pBudEGFP/APP^WT-transfected neurons, incubated in permeabilization buffer (0.1% Triton X-100, 0.1 sodium citrate) for 1 min on ice, washed with PBS, blocked for 20 min at room temperature with 10% goat serum (Sigma, Oakville, ON, CA), and incubated with primary antibodies diluted in 10% goat serum in PBS overnight at 4 °C in a humid chamber. The glass coverslips were washed with PBS, and incubated with goat anti-rabbit secondary antibody coupled to Alexa 488 (Molecular Probes, Eugene, OR, USA) or Cy3 (GE Healthcare Life Sciences, Baie D’Urfe, QC, CA) and Hoechst 33342 (ImmunoChemistry, Bloomington, MN, USA) at 1 μg/mL for 2 h at room temperature. The coverslips were washed with PBS and rinsed in Milli-Q water before mounting in fluoromount (Dako, Burlington, ON, CA). Images were acquired by fluorescence microscopy and quantified using the ImageJ software (NIH, Bethesda, MD, USA) for TubΔCasp6 and manually counted for transfected EGFP(+)-neurons. Time lapse-imaging by live fluorescence microscopy: Primary human neurons were transfected with gold beads coated with pBudEGFP or pBudEGFP/APP^WT using a Helios Gene gun (BioRad, Mississauga, ON, CA). Briefly, cells were pre-treated with 100 μM NWL inhibitors or 5 μM Z-VEID-fmk for 2 h. The media was removed and the neurons were shot at 100 psi. The media was quickly replaced with the inhibitors present. The plasmid was expressed for 16 h before setting up the fluorescence microscope (Nikon Eclipse Ti) to acquire 20 images per condition every hour for 72 h at 37 °C with 5% CO2. The images were analyzed by counting the total number of neurons (50–100 neurons per condition per independent experiment), and the number of beaded, swollen soma, and healthy neurons. In addition, the time at which cells beaded was noted. Phase contrast microscopy: HCT116 cells, plated at a density of 1×10^5 cells/well and human neurons, plated at a density of 6×10^6 cells/well on poly-L-lysine were treated with PBS, 100 μM NWL-117, 100 μM NWL-154, or 2 μM staurosporine (Biomol, Plymouth meeting, PA, USA) for 24 h. Images were acquired with the Nikon Eclipse Ti microscope and the NIS-Elements (Version 3.10) software.

recombinant Caspase-10 = molecular target: T4, recombinant Caspase-10 (Homo sapiens, UniProt Q92851); assay: Caspase Inhibitor Drug Screening Kit (BioVision), AEVD-AFC substrate; format: biochemical; conditions: not active site titrated
T4 construct: purchased BioVision
T4 sequence (Q92851 220-521): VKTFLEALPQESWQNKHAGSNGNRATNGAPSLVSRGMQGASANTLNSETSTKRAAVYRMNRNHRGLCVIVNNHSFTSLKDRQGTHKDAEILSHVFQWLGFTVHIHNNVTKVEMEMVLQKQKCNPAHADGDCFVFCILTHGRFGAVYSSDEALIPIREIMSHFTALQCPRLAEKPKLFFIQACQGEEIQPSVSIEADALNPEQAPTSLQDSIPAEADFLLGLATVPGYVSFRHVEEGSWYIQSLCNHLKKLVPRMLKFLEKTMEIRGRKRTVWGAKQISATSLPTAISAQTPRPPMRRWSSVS
Description: as §1

recombinant Caspase-3 = molecular target: T5, recombinant Caspase-3 (Homo sapiens, UniProt P42574); assay: Caspase Inhibitor Drug Screening Kit (BioVision), DEVD-AFC substrate; format: biochemical; conditions: not active site titrated
T5 construct: purchased BioVision
T5 sequence (P42574 29-277): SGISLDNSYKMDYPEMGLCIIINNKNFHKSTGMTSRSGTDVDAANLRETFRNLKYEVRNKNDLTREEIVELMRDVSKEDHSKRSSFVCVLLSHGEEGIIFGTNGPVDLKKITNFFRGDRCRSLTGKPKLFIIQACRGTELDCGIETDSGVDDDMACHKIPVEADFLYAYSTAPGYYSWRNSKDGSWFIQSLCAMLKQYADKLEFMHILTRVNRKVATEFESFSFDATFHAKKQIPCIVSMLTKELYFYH
Description: (§2) The half-maximal inhibitory concentrations (IC50) for NWL inhibitors (Patent publication # WO/2009/140765, WO/2010/133000, and WO/2012/140500) was determined by incubating 0 to 20 μM NWL-117 and NWL-154 with 20 nM of active site-titrated Casp6 in SB at room temperature for 5 minutes. Then, 10 μM Ac-VEID-AFC was added and fluorescence measured for 20 min at 37 °C as described above. New World Laboratories performed the IC50 determination for NWL inhibitors dissolved in dimethyl sulfoxide (DMSO) against recombinant Casp1-10 using the Caspase Inhibitor Drug Screening Kits (BioVision, San Francisco, CA) following the manufacturer’s instructions and the preferred substrates for the caspases (Caspase-1: WAD-AFC, Caspase-2: VDVAD-AFC, Caspase-3: DEVD-AFC, Caspase-4: LEVD-AFC, Caspase-5: WEHD-AFC, Casp6:VEID-AFC, Caspase-7: DEVD-AFC, Caspase-8: IETD-AFC, Caspase-9: LEHD-AFC, Caspase-10: AEVD-AFC). In transfected HCT116 cells, 0 to 100 μM NWL inhibitors were added in the culture media and left on the cells for 2 h. Cells were washed once with 1 mL ice-cold PBS, incubated on ice for 5 min with 200 μL cell lysis buffer (CLB) (50 mM HEPES, 0.1% CHAPS, 0.1 mM EDTA), and gently scraped off. Protein concentrations were determined by Bradford assay (BioRad, Mississauga, ON, CA) by measuring the absorbance at 595 nm using the BioTek Synergy H4 plate reader. Caspase-6 activity was measured in 40–60 μg total protein as described above. The IC50 for recombinant and cellular caspases were determined using GraphPad Prism 5.0 (La Jolla, CA, USA) using a log (inhibitor) – response curve with a Hill slope of −1.

recombinant Caspase-7 = molecular target: T6, recombinant Caspase-7 (Homo sapiens, UniProt P55210); assay: as above; format: biochemical; conditions: not active site titrated
T6 construct: purchased BioVision
T6 sequence (P55210 whole entry): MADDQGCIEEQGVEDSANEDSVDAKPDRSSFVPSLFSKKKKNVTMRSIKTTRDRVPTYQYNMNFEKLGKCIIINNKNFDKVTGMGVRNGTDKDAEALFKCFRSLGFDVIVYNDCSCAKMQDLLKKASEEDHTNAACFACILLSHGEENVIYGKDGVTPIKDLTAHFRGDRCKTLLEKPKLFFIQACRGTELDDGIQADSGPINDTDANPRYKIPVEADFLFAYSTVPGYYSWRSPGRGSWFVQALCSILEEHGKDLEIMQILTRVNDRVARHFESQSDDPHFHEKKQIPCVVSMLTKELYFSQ
Description: as §2

[2] = APPWT-transfected neurons, live imaging, 100 μM

Row | SMILES | IC50 (recombinant Caspase-4) | IC50 (recombinant Caspase-1) | IC50 (recombinant Caspase-2) | neuritic beading [1] | percentage of beaded neurons, fold of EGFP-alone [1] | IC50 (recombinant Caspase-10) | IC50 (recombinant Caspase-3) | IC50 (recombinant Caspase-7) | neuronal soma rounding [1, 2] | neuronal survival (neurons with homogeneously distributed EGFP) [1, 2]
1 | CCC(C)[C@H](NC(=O)[C@H](CCC(=O)O)NC(=O)[C@@H](NC(=O)OCc1ccccc1)C(C)C)C(=O)N[C@H](/C=C(\Cl)S(C)(=O)=O)CC(=O)O (stereo partly drawn) [NWL-154] | 1800 nM | 3850 nM | > 100000 nM | prevented neuritic beading | 1.07 fold | 190 nM | 1340 nM | > 100000 nM | – | –
2 | CCC(C)[C@H](NC(=O)[C@H](CCC(=O)O)NC(=O)[C@@H](NC(=O)OCc1ccccc1)C(C)C)C(=O)N[C@H](/C=C/S(C)(=O)=O)CC(=O)O (stereo partly drawn) [NWL-117] | 380 nM | 2700 nM | > 100000 nM | prevented neuritic beading | 0.84 fold | 130 nM | 6960 nM | > 100000 nM | inhibited | significantly increases neuronal survival
